Measured values: patent US20070134670A1, “Methods for prediction and prognosis of cancer, and monitoring cancer therapy” (BAYER PHARMACEUTICALS CORPORATION, priority 2003, published 2007)

System: stanniocalcin expression in HMVEC cells
Test: In vitro endothelial cell gene expression profiling (Affymetrix / TaqMan), HMVEC
Type: cell-based, human
Settings: HMVECs; VEGF 10 ng/ml with heparin, 2 hours (FIG. 2A)
From the text: Pooled human microvascular endothelial cells (HMVECs) or human umbilical vein endothelial cells (HUVECs) were purchased as 2 T75 flasks (Clonetics, Cambrex Corporation, East Rutherford, N.J.). Cells were expanded in fill Clonetics growth media (EGF+5% FCS) on 2% gelatin coated flasks until sufficient numbers were obtained to perform the experiment (4 flasks each at less than 6 passages). Prior to the treatments, cells were washed 2× in PBS and starved overnight in basal media (EBM+0.2% endotoxin free BSA). The next day, media was removed and replaced with 25 ml of EBM+BSA. VEGFR2 inhibitor (drug) stock was made in DMSO and added to a final concentration of 100 nm in 0.1% DMSO. Heparin was used at 1.5 U/ml final concentration. VEGF final concentration was 10 ng/ml. Drug/DMSO was added for 30 minutes prior to adding VEGF/Heparin for 2 hours. […] RNA was subsequently isolated via Qiagen midi spin kits and quantitated by OD260/280 and gel visualization and/or Agilent bioanalyzer.
Samples were organically extracted and ethanol precipitated. […] The resulting cRNA was put through RNeasy clean-up protocol, and then quantified using UV spectrophotometry. […]
A master mix of the primers at 50 μM each was prepared. The samples were analyzed by standard PCR conditions on an ABI PRISM 7700 Sequence Detector using SYBR green probes. β-actin was used as controls for loading normalization.

VEGF
human stanniocalcin-1 expression induced after treatment with VEGF: ~20 fold
